These results are taken from ChEMBL document CHEMBL2073917, “Polymethoxylated flavones in orange juice are inhibitors of P-glycoprotein but not cytochrome P450 3A4” (J Pharmacol Exp Ther, 2000).

SMILES strings stand for the structures.

Common to all, as to assay type: functional, cell-based
Holding throughout (conditions): pig, llc-pk1, 20 µM

Data set [1] addresses T1, ATP-dependent translocase ABCB1 (Homo sapiens, UniProt P08183). The data set can be described thus: TP_TRANSPORTER: increase in Vinblastine uptake (Vinblastine: 0.02 uM, HMF: 20 uM) in MDR1-expressing LLC-PK1 cells.
In data set [2] the target is T1, ATP-dependent translocase ABCB1. Nature of the data set: TP_TRANSPORTER: increase in Vinblastine uptake (Vinblastine: 0.02 uM, Nobiletin: 20 uM) in MDR1-expressing LLC-PK1 cells.
Data set [3] has the same target. The data set can be described thus: TP_TRANSPORTER: increase in Vinblastine uptake (Vinblastine: 0.02 uM, Tangeretin: 20 uM) in MDR1-expressing LLC-PK1 cells.

T1 sequence (P08183 whole entry): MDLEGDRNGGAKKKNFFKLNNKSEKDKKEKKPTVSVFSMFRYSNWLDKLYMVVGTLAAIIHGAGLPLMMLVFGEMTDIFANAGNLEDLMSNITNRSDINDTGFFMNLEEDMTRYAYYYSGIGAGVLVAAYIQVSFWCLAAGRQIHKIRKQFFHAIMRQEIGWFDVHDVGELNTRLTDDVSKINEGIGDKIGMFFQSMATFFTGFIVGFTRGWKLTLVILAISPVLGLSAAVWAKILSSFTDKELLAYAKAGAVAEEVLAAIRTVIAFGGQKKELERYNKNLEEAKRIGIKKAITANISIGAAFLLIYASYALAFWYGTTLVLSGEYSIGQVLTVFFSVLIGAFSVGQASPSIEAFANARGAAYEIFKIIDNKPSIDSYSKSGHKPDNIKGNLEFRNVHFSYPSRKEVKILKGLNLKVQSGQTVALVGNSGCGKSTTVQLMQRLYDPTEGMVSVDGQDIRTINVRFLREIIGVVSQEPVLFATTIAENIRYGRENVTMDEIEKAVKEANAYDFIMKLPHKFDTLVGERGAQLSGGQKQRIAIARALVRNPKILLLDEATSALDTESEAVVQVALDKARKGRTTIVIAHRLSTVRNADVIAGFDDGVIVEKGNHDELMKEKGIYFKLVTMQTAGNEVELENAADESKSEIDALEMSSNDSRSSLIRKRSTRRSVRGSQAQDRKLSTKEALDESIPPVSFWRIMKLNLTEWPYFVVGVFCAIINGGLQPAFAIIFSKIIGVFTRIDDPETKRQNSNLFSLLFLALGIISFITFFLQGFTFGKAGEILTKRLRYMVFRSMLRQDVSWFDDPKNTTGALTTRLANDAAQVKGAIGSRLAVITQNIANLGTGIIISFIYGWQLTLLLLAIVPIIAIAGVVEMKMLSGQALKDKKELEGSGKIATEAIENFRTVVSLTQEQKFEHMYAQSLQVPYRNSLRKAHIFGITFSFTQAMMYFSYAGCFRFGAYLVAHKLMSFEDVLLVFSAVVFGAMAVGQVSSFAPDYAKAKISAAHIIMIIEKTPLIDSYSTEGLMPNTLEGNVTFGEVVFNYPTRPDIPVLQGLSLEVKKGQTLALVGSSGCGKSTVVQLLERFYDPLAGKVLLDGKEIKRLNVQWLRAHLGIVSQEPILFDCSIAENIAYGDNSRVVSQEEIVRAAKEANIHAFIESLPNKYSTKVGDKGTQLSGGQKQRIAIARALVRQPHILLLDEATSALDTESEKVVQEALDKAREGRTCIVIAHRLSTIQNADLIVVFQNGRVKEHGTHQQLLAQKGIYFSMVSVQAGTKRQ

Compound `COc1ccc(-c2oc3c(OC)c(OC)c(OC)c(OC)c3c(=O)c2OC)cc1OC` [3,5,6,7,8,3',4'-HEPTAMETHOXYFLAVONE] had an Activity in data set [1] of 935%.

On to `COc1ccc(-c2cc(=O)c3c(OC)c(OC)c(OC)c(OC)c3o2)cc1OC` [NOBILETIN], for which, in data set [2], the Activity worked out at 604%.

As to `COc1ccc(-c2cc(=O)c3c(OC)c(OC)c(OC)c(OC)c3o2)cc1` [TANGERETIN], in data set [3], the Activity is recorded as 175%.
